Publication PMC8381505, “Phase 1 clinical trial of the PI3Kδ inhibitor YY-20394 in patients with B-cell hematological malignancies” (Journal of Hematology & Oncology, 2021)

Legend:
[1] = Experimental: During dose escalation, patients received YY-20394 tablets q.d. at dosages of 20, 40, 80, 140 or 200 mg. The maximum tolerated dose (MTD), dose escalation phase and dose-limiting toxicity (DLT) as well as hematological toxicity classifications are described in Additional file 4. The primary endpoints were safety, tolerability and the MTD of YY-20394. Secondary endpoints were PK parameters and efficacy. Response criteria followed the revised International Research Working Group (IRWG) for non-Hodgkin lymphomas (NHL), and the International Working Group on Chronic Lymphocytic Leukemia (IWCLL) criteria for CLL [8]. Efficacy determinations were the objective response rate (ORR), disease control rate (DCR), complete remission (CR), partial remission (PR), stable disease (SD), progressive disease (PD) and progression-free survival (PFS).
The safety evaluation of YY-20394 included adverse events (AEs) and serious AEs (SAEs) by standard categorizations.
The maximum tolerated dose (MTD) was established during the dose escalation phase, based on dose-limiting toxicity (DLT) developments, which were defined as: death; grade IV hematological toxicity with a duration of 1 week; or non-hematological toxicities ≥ grade III. […] At the end of the tolerance test, the dose extension test was conducted, in which YY-20394 was administered for a period of 28 days per cycle until the disease progressed or toxicity developed beyond tolerance. Patients visited the clinic once a week during treatment cycle 1 and every 2 weeks during cycle 2 and once a month thereafter.

PI3Kα = assay: PI3K isoform selectivity, α versus δ; assay type: biochemical
PI3Kβ = assay: PI3K isoform selectivity, β versus δ; assay type: biochemical
[2] = drug-related AE, n (%) of 25 evaluable patients

Compound: COc1ncc(-c2nc(N3CCOCC3)nc3c(CN4CCC(C(C)(C)O)CC4)cc(F)cc23)cc1NS(C)(=O)=O [YY-20394, N-[5-[6-fluoro-8-[[4-(1-hydroxy-1-methylethyl)-1-piperidinyl]methyl]-2-(4-morpholinyl)-4-quinazolinyl]-2-methoxy-3-pyridinyl]-methanesulfonamide]
- maximum tolerated dose (MTD) ([1]; 20–200 mg daily): not reached
- Upper respiratory tract infection, number of patients with grade I/II at > 5% incidence [1, 2]: 4 (16.0)
- Upper respiratory tract infection, number of patients with ≥ grade III [1, 2]: 1 (4.0)
- Anemia, number of patients with grade I/II at > 5% incidence ([1]; human, in vivo): 3 (12.0)
- Anemia, number of patients with ≥ grade III ([1]; human, in vivo): 0
- Cough, number of patients with grade I/II at > 5% incidence ([1]; human, in vivo): 2 (8.0)
- Cough, number of patients with ≥ grade III ([1]; human, in vivo): 0
- Diarrhea, number of patients with grade I/II at > 5% incidence ([1]; human, in vivo): 2 (8.0)
- Diarrhea, number of patients with ≥ grade III ([1]; human, in vivo): 0
- Elevated alanine aminotransferase, number of patients with grade I/II at > 5% incidence ([1]; human, in vivo): 3 (12.0)
- Elevated alanine aminotransferase, number of patients with ≥ grade III ([1]; human, in vivo): 0
- Elevated aspartate aminotransferase, number of patients with grade I/II at > 5% incidence ([1]; human, in vivo): 2 (8.0)
- Elevated aspartate aminotransferase, number of patients with ≥ grade III ([1]; human, in vivo): 0
- Elevated bilirubin, number of patients with grade I/II at > 5% incidence ([1]; human, in vivo): 2 (8.0)
- Elevated bilirubin, number of patients with ≥ grade III ([1]; human, in vivo): 0
- Elevated serum alkaline phosphatase, number of patients with grade I/II at > 5% incidence ([1]; human, in vivo): 3 (12.0)
- Elevated serum alkaline phosphatase, number of patients with ≥ grade III ([1]; human, in vivo): 0
- Elevated serum lactate dehydrogenase, number of patients with grade I/II at > 5% incidence ([1]; human, in vivo): 11 (44.0)
- Elevated serum lactate dehydrogenase, number of patients with ≥ grade III ([1]; human, in vivo): 1 (4.0)
- Elevated serum α-hydroxybutyrate dehydrogenase, number of patients with grade I/II at > 5% incidence ([1]; human, in vivo): 6 (24.0)
- Elevated serum α-hydroxybutyrate dehydrogenase, number of patients with ≥ grade III ([1]; human, in vivo): 1 (4.0)
- Elevated γ-glutamyltransferase, number of patients with grade I/II at > 5% incidence ([1]; human, in vivo): 2 (8.0)
- Elevated γ-glutamyltransferase, number of patients with ≥ grade III ([1]; human, in vivo): 0
- Fatigue, number of patients with grade I/II at > 5% incidence ([1]; human, in vivo): 2 (8.0)
- Fatigue, number of patients with ≥ grade III ([1]; human, in vivo): 0
- Fever, number of patients with grade I/II at > 5% incidence ([1]; human, in vivo): 2 (8.0)
- Fever, number of patients with ≥ grade III ([1]; human, in vivo): 0
- Hyperbilirubinemia, number of patients with grade I/II at > 5% incidence ([1]; human, in vivo): 3 (12.0)
- Hyperbilirubinemia, number of patients with ≥ grade III ([1]; human, in vivo): 0
- Hyperuricemia, number of patients with grade I/II at > 5% incidence ([1]; human, in vivo): 5 (20.0)
- Hyperuricemia, number of patients with ≥ grade III ([1]; human, in vivo): 3 (12.0)
- Leukocytosis, number of patients with grade I/II at > 5% incidence ([1]; human, in vivo): 2 (8.0)
- Leukocytosis, number of patients with ≥ grade III ([1]; human, in vivo): 0
- Leukopenia, number of patients with grade I/II at > 5% incidence ([1]; human, in vivo): 11 (44.0)
- Leukopenia, number of patients with ≥ grade III ([1]; human, in vivo): 2 (8.0)
- Lymphocythemia, number of patients with grade I/II at > 5% incidence ([1]; human, in vivo): 3 (12.0)
- Lymphocythemia, number of patients with ≥ grade III ([1]; human, in vivo): 2 (8.0)
- Maculopapule, number of patients with grade I/II at > 5% incidence ([1]; human, in vivo): 2 (8.0)
- Maculopapule, number of patients with ≥ grade III ([1]; human, in vivo): 0
- Neutropenia, number of patients with grade I/II at > 5% incidence ([1]; human, in vivo): 17 (68.0)
- Neutropenia, number of patients with ≥ grade III ([1]; human, in vivo): 11 (44.0)
- Oropharyngeal pain, number of patients with grade I/II at > 5% incidence ([1]; human, in vivo): 2 (8.0)
- Oropharyngeal pain, number of patients with ≥ grade III ([1]; human, in vivo): 0
- Pneumonia, number of patients with grade I/II at > 5% incidence ([1]; human, in vivo): 4 (16.0)
- Pneumonia, number of patients with ≥ grade III ([1]; human, in vivo): 4 (16.0)
- Pneumonitis, number of patients with grade I/II at > 5% incidence ([1]; human, in vivo): 3 (12.0)
- Pneumonitis, number of patients with ≥ grade III ([1]; human, in vivo): 2 (8.0)
- Proteinuria, number of patients with grade I/II at > 5% incidence ([1]; human, in vivo): 4 (16.0)
- Proteinuria, number of patients with ≥ grade III ([1]; human, in vivo): 0
- Thrombocytopenia, number of patients with grade I/II at > 5% incidence ([1]; human, in vivo): 5 (20.0)
- Thrombocytopenia, number of patients with ≥ grade III ([1]; human, in vivo): 1 (4.0)
- Weight gain, number of patients with grade I/II at > 5% incidence ([1]; human, in vivo): 2 (8.0)
- Weight gain, number of patients with ≥ grade III ([1]; human, in vivo): 1 (4.0)
- Weight loss, number of patients with grade I/II at > 5% incidence ([1]; human, in vivo): 3 (12.0)
- Weight loss, number of patients with ≥ grade III ([1]; human, in vivo): 0
- dose-limiting toxicity (DLT) ([1]; human, in vivo): no patients experienced DLT
- drug-related AE elevated lactate dehydrogenase ([1]; human, in vivo): 44.0%
- drug-related AE elevated α-hydroxybutyrate dehydrogenase ([1]; human, in vivo): 24.0%
- drug-related AE hyperuricemia ([1]; human, in vivo): 20.0%
- drug-related AE leukopenia ([1]; human, in vivo): 44.0%
- drug-related AE neutropenia ([1]; human, in vivo): 68.0%
- drug-related AE thrombocytopenia ([1]; human, in vivo): 20.0%
- drug-related AE ≥ grade III hyperuricemia ([1]; human, in vivo): 12.0%
- drug-related AE ≥ grade III leukopenia ([1]; human, in vivo): 8.0%
- drug-related AE ≥ grade III lymphocythemia ([1]; human, in vivo): 8.0%
- drug-related AE ≥ grade III neutropenia ([1]; human, in vivo): 44.0%
- drug-related AE ≥ grade III pneumonia ([1]; human, in vivo): 16.0%
- drug-related AE ≥ grade III pneumonitis ([1]; human, in vivo): 8.0%
- grade IV hyperuricemia ([1]; human, in vivo): 3 cases
- grade IV neutropenia ([1]; human, in vivo): 4
- grade V AEs ([1]; human, in vivo): no grade V AEs occurred
- incidence of diarrhea, colitis, and hepatotoxicities ([1]; human, in vivo): very low
- number of ≥ grade III AEs ([1]; human, in vivo): 32
- patients who experienced SAEs ([1]; human, in vivo): 52.0%
- patients who experienced drug-related AEs (so in the source) ([1]; human, in vivo): 36.0%
- patients with ≥ 1 AE ([1]; human, in vivo): 25 patients
- Ratio of IC50 α/δ (PI3Kα): 252
- Ratio of IC50 β/δ (PI3Kβ): 30
